Drawing on US20210101874A1, “MICROBIOCIDAL OXADIAZOLE DERIVATIVES” (SYNGENTA PARTICIPATIONS AG, priority 2017, published 2021), this text covers inhibition and pest or weed control for twelve molecules.

Structures are written as SMILES.

The test system of test [1] is Glomerella lagenarium (Colletotrichum lagenarium). Description: Glomerella lagenarium (Colletotrichum lagenarium) liquid culture / cucumber / preventative (anthracnose). Conditions: Colletotrichum orbiculare; 20 ppm in the applied formulation; conidia in PDB nutrient broth, 24° C.; 3 to 4 days after application; compared to untreated; read-out: disease control (inhibition of growth measured photometrically). The class given is cell-based. The procedure: Mycelia fragments or conidia suspensions of a fungus prepared either freshly from liquid cultures of the fungus or from cryogenic storage, are directly mixed into nutrient broth. DMSO solutions of the test compound (max. 10 mg/ml) are diluted with 0.025% Tween20 by a factor of 50 and 10 µl of this solution is pipetted into a microtiter plate (96-well format). The nutrient broth containing the fungal spores/mycelia fragments is then added to give an end concentration of the tested compound. The test plates are incubated in the dark at 24° C. and 96% relative humidity. The inhibition of fungal growth is determined photometrically after 2 to 7 days, depending on the pathosystem, and percent antifungal activity relative to the untreated check is calculated. Conidia of the fungus from cryogenic storage are directly mixed into nutrient broth (PDB—potato dextrose broth). After placing a (DMSO) solution of test compound into a microtiter plate (96-well format), the nutrient broth containing the fungal spores is added. The test plates are incubated at 24° C. and the inhibition of growth is measured photometrically 3 to 4 days after application. The following compounds at 20 ppm in the applied formulation give at least 80% disease control in this test when compared to untreated control under the same conditions, which show extensive disease development.

Test [2] deals with Puccinia recondita f. sp. Tritici. Description: Puccinia recondita f. sp. tritici / wheat / leaf disc preventative (brown rust). Conditions: foliar, 200 ppm in the applied formulation, wheat leaf segments cv. Kanzler, inoculated 1 day after application, compared to untreated, assessed 7 to 9 days after application, read-out: disease control. The class given is in vivo. The procedure:
Leaf disks or leaf segments of various plant species are cut from plants grown in a greenhouse. The cut leaf disks or segments are placed in multiwell plates (24-well format) onto water agar. The leaf disks are sprayed with a test solution before (preventative) or after (curative) inoculation. Compounds to be tested are prepared as DMSO solutions (max. 10 mg/ml) which are diluted to the appropriate concentration with 0.025% Tween20 just before spraying. The inoculated leaf disks or segments are incubated under defined conditions (temperature, relative humidity, light, etc.) according to the respective test system. A single evaluation of disease level is carried out 3 to 14 days after inoculation, depending on the pathosystem. Percent disease control relative to the untreated check leaf disks or segments is then calculated. Wheat leaf segments cv. Kanzler were placed on agar in multiwell plates (24-well format) and sprayed with the formulated test compound diluted in water. The leaf disks were inoculated with a spore suspension of the fungus 1 day after application. The inoculated leaf segments were incubated at 19° C. and 75% relative humidity (rh) under a light regime of 12 hours light/12 hours darkness in a climate cabinet and the activity of a compound was assessed as percent disease control compared to untreated when an appropriate level of disease damage appears in untreated check leaf segments (7 to 9 days after application). The following compounds at 200 ppm in the applied formulation give at least 80% disease control in this test when compared to untreated control leaf disks under the same conditions, which show extensive disease development.

As a reminder, the inhibition is the drop in the measured response relative to a control, in per cent. On to `CCN(Cc1ccc(-c2noc(C(F)(F)F)n2)cc1)S(=O)(=O)CCC(=O)OC` [Compound 1.36, methyl 3-[ethyl-[[4-[5-(trifluoromethyl)-1,2,4-oxadiazol-3-yl]phenyl]methyl]sulfamoyl]propanoate], for which the inhibition at 20 ppm in test [1] is ≥ 80%. Also, in test [2], the pest or weed control at 200 ppm is ≥ 80%.

`CN(Cc1ccc(-c2noc(C(F)(F)F)n2)cc1)S(=O)(=O)N1CCCC1` [Compound 1.44, N-methyl-N-[[4-[5-(trifluoromethyl)-1,2,4-oxadiazol-3-yl]phenyl]methyl] pyrrolidine-1-sulfonamide]: in test [1], the inhibition at 20 ppm is ≥ 80%. Also, the pest or weed control at 200 ppm in test [2] is ≥ 80%.

With `COC(=O)CCS(=O)(=O)N(C)Cc1ccc(-c2noc(C(F)(F)F)n2)cc1` [Compound 1.48, methyl 3-[methyl-[[4-[5-(trifluoromethyl)-1,2,4-oxadiazol-3-yl]phenyl]methyl]sulfamoyl]propanoate], the inhibition at 20 ppm in test [1] was ≥ 80%. In addition, the pest or weed control at 200 ppm in test [2] is ≥ 80%.

With `COC(=O)CS(=O)(=O)N(C)Cc1ccc(-c2noc(C(F)(F)F)n2)cc1` [Compound 1.53, methyl 2-[methyl-[[4-[5-(trifluoromethyl)-1,2,4-oxadiazol-3-yl]phenyl]methyl]sulfamoyl]acetate], in test [1], the inhibition at 20 ppm is ≥ 80%. For the same molecule, the pest or weed control at 200 ppm in test [2] is ≥ 80%.

`CC(C)S(=O)(=O)N(C)Cc1ccc(-c2noc(C(F)(F)F)n2)cc1` [Compound 1.54, N-methyl-N-[[4-[5-(trifluoromethyl)-1,2,4-oxadiazol-3-yl]phenyl]methyl] propane-2-sulfonamide]: the inhibition at 20 ppm in test [1] is ≥ 80%. Moreover, the pest or weed control at 200 ppm in test [2] is ≥ 80%.

With `CCN(Cc1ccc(-c2noc(C(F)(F)F)n2)cc1)S(=O)(=O)Cc1ccccc1` [Compound 1.60, N-ethyl-1-phenyl-N-[[4-[5-(trifluoromethyl)-1,2,4-oxadiazol-3-yl]phenyl]methyl] methanesulfonamide], the inhibition at 20 ppm in test [1] was ≥ 80%. Moreover, in test [2], the pest or weed control at 200 ppm is ≥ 80%.

Consider `CCCN(Cc1ccc(-c2noc(C(F)(F)F)n2)cc1)S(=O)(=O)c1ccn(C)n1` [Compound 1.65, 1-methyl-N-propyl-N-[[4-[5-(trifluoromethyl)-1,2,4-oxadiazol-3-yl]phenyl]methyl] pyrazole-3-sulfonamide], for which the inhibition at 20 ppm in test [1] was ≥ 80%. Moreover, in test [2], the pest or weed control at 200 ppm was ≥ 80%.

`CCCN(Cc1ccc(-c2noc(C(F)(F)F)n2)cc1)S(=O)(=O)N1CCCC1` [Compound 1.68, N-propyl-N-[[4-[5-(trifluoromethyl)-1,2,4-oxadiazol-3-yl]phenyl]methyl] pyrrolidine-1-sulfonamide]: the inhibition at 20 ppm in test [1] is ≥ 80%. Moreover, the pest or weed control at 200 ppm in test [2] was ≥ 80%.

For the molecule `CCCN(Cc1ccc(-c2noc(C(F)(F)F)n2)cc1)S(=O)(=O)CC1CCOC1` (stereo not drawn) [Compound 1.71, N-propyl-1-tetrahydrofuran-3-yl-N-[[4-[5-(trifluoromethyl)-1,2,4-oxadiazol-3-yl]phenyl]methyl] methanesulfonamide], the inhibition at 20 ppm in test [1] was ≥ 80%. In addition, in test [2], the pest or weed control at 200 ppm is ≥ 80%.

`CCCN(Cc1ccc(-c2noc(C(F)(F)F)n2)cc1)S(=O)(=O)NC` [Compound 1.80, 3-[4-[[methylsulfamoyl (propyl)amino]methyl]phenyl]-5-(trifluoromethyl)-1,2,4-oxadiazole]: the inhibition at 20 ppm in test [1] was ≥ 80%. For the same molecule, in test [2], the pest or weed control at 200 ppm was ≥ 80%.

For the molecule `COC(=O)CCS(=O)(=O)N(Cc1ccc(-c2noc(C(F)(F)F)n2)cc1)OC` [Compound 1.93, methyl 3-[methoxy-[[4-[5-(trifluoromethyl)-1,2,4-oxadiazol-3-yl]phenyl]methyl]sulfamoyl]propanoate], the inhibition at 20 ppm in test [1] is ≥ 80%. The pest or weed control at 200 ppm in test [2] is ≥ 80%.

Consider `CC(C)N(Cc1ccc(-c2noc(C(F)(F)F)n2)cc1)S(=O)(=O)N1CCCC1` [Compound 1.97, N-isopropyl-N-[[4-[5-(trifluoromethyl)-1,2,4-oxadiazol-3-yl]phenyl]methyl] pyrrolidine-1-sulfonamide], for which the inhibition at 20 ppm in test [1] is ≥ 80%. Also, in test [2], the pest or weed control at 200 ppm is ≥ 80%.
